“Also recorded” adds a separate entry of the source.
Columns and labels:
[1] = system: wild type sibling control seeds (wheat cultivar Express); experiment: Growth chamber germination on MS medium containing glyphosate, shoot and root length; assay type: in vivo, Triticum aestivum; conditions: 0.1x MS medium, 0.15 mM glyphosate, 10-14 days of development
Excerpt: (§1) Plants homozygous for the single preferred mutations (the T173I mutation in the B genome, the T173I mutation in the D genome and the P177S mutation in the A genome) were identified in the M3 seeds. Wild type siblings were also identified and used as controls. Plants that were homozygous for the T173I mutation in the D genome were crossed to plants that were homozygous for the P177S mutation in the A genome to generate double mutant plants.
(§2) Growth Chamber Studies: Seeds from plants that were homozygous for one of the single preferred mutations and seeds from their wild type sibling control plants were surface sterilized, placed on moist germination paper overnight, and then grown in glass tubes with 0.1× Murashige & Skoog (MS) medium containing 0 or 0.15 mM glyphosate. Germination was performed in a growth chamber under a light condition of 16 hours of light/8 hours of dark of 80 microEinsteins. At 10-14 days of development, shoot and root lengths were measured.
(§3) Seeds from plants that were homozygous for the double preferred mutations (both T173 I and P177S) were compared to seeds that were homozygous for each of the single preferred mutation for their ability to survive on MS media containing glyphosate. Seeds from their wild type sibling plants were used as […]. Seeds were germinated as described above.

[2] = system: wheat seeds homozygous for one single preferred EPSPS mutation (T173I B genome, T173I D genome or P177S A genome); experiment: as above; assay type: in vivo, Triticum aestivum; conditions: 0.1x MS medium, 0.15 mM glyphosate, 10-14 days of development
Excerpt: as §1, §2, §3

[3] = system: wheat seeds homozygous for the double preferred EPSPS mutations (T173I D genome and P177S A genome); experiment: as above; assay type: in vivo, Triticum aestivum; conditions: MS media containing glyphosate, double mutation seeds compared with single mutation seeds
Excerpt: as §1, §2, §3

[4] = system: maize EPSPS (threonine to isoleucine); conditions: U.S. Pat. No. 6,566,587; cited from earlier work
E. coli EPSPS T97I = E. coli EPSPS T97I (Escherichia coli, UniProt P0A6D3, T97I); conditions: Funke et al. 2009; cited from earlier work
E. coli EPSPS T97I, sequence (P0A6D3 whole entry T97I): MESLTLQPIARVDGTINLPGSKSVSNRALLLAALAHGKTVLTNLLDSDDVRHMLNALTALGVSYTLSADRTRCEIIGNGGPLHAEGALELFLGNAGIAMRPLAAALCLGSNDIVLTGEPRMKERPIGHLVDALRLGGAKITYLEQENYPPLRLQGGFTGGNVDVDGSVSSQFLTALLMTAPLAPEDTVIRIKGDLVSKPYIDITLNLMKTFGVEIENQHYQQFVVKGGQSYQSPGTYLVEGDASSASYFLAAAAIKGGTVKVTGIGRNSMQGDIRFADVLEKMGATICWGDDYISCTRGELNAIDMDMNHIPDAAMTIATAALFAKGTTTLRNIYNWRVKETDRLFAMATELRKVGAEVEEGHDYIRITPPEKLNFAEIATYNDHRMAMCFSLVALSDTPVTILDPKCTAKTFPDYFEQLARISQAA

## O=C(O)CNCP(=O)(O)O [glyphosate]
[1]
  growth (shoot and root length) of seeds on medium containing glyphosate: for the most part failed to grow
[2]
  growth (shoot and root length) of seeds on medium containing glyphosate: the majority of seeds with mutations grew well; also recorded: resistant to glyphosate and grew well
[3]
  growth (shoot and root length) of seeds on medium containing glyphosate: more resistant to glyphosate than seeds that were homozygous for each of the single preferred mutations
[4]
  inhibition of mutated enzyme by glyphosate: reduced inhibition by glyphosate
E. coli EPSPS T97I
  sensitivity of mutated enzyme to glyphosate: leads to sensitivity to glyphosate
